From PubChem BioAssay (NCI)
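Values below derive from 48-hour exposures of cells grown in 96-well plates, with endpoints linearly interpolated between the two concentrations bracketing the appropriate inhibition level. GI50 marks 50% less growth. TGI denotes the concentration required for complete inhibition of growth.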

Experiments:
Assay in all cases: growth of human tumour cells (NCI), 48 h
SNB-75 CNS = test system: SNB-75 CNS
NCI-H23 lung = test system: NCI-H23 lung
RPMI-8226 leukemia = test system: RPMI-8226 leukemia
MALME-3M melanoma = test system: MALME-3M melanoma
EKVX NSCLC = test system: EKVX NSCLC
MDA-MB-231 breast = test system: MDA-MB-231 breast
COLO 205 colon = test system: COLO 205 colon
PC-3 prostate = test system: PC-3 prostate
HS 578T breast = test system: HS 578T breast
SN12C renal = test system: SN12C renal

SMILES	TGI (SNB-75 CNS) [µM]	TGI (NCI-H23 lung) [µM]	TGI (RPMI-8226 leukemia) [µM]	TGI (MALME-3M melanoma) [µM]	TGI (EKVX NSCLC) [µM]	GI50 (MDA-MB-231 breast) [µM]	TGI (MDA-MB-231 breast) [µM]	GI50 (SNB-75 CNS) [nM]	GI50 (NCI-H23 lung) [µM]	GI50 (RPMI-8226 leukemia) [µM]	GI50 (MALME-3M melanoma) [µM]	GI50 (COLO 205 colon) [nM]	TGI (COLO 205 colon) [µM]	GI50 (PC-3 prostate) [µM]	TGI (PC-3 prostate) [µM]	GI50 (HS 578T breast) [nM]	TGI (HS 578T breast) [µM]	GI50 (SN12C renal) [µM]	TGI (SN12C renal) [µM]
Cc1ccc(S(=O)(=O)c2ccccc2[N+](=O)[O-])cc1	> 100	> 100	> 100	> 100	> 100	–	–	–	–	–	–	–	–	–	–	–	–	–	–
O=c1[nH]c2nc(NC3CCOCC3)ncc2cc1Oc1ccc(F)cc1F	> 25	> 25	> 25	> 25	–	> 25	> 25	> 8270	> 25	> 25	> 25	> 25000	> 25	> 25	> 25	> 25000	> 25	> 25	> 25
CCCC(=O)N[C@H]1C2C3CC4C5CC(C42)C1(C)C53 (stereo partly specified)	> 100	–	> 100	> 100	> 100	–	–	–	–	–	–	–	> 100	–	–	–	–	–	> 100
O=C(O)CCNCCCCNCCC(=O)O	> 100	> 100	> 100	> 100	> 100	–	–	–	–	–	–	–	> 100	–	–	–	–	–	> 100
N/N=C1\C(=O)N(c2ccc(Cl)cc2Cl)C(=O)C(=O)C1c1nc2ccccc2o1 (stereo unspecified)	> 100	> 100	> 100	> 100	> 100	–	–	–	–	–	–	–	> 100	–	–	–	–	–	> 100
C[Si](C)(C)/C=C\CCO	> 100	> 100	> 100	> 100	> 100	–	–	–	–	–	–	–	> 100	–	–	–	–	–	> 100
Cn1cc(C2=C(c3cn(C)c4ccc(Cl)cc34)C(=O)NC2=O)c2ccccc21	> 17.3	14.6	17.2	19	–	6.69	> 25	709	4.64	5.68	6.33	1670	7.93	3.88	> 23.2	2110	> 23.9	3.87	15.7
Cc1cccc(C)c1NC(=O)CCc1nc(=S)[nH][nH]1	> 100	> 100	> 100	> 100	> 100	–	–	–	–	–	–	–	> 100	–	–	–	–	–	> 100
c1ccc2c(c1)oc1ccc3nsnc3c12	> 100	> 100	–	> 100	> 100	–	–	–	–	–	–	–	> 100	–	–	–	–	–	–
CC1CCSC(N(C(=O)N(C)c2ccccc2)c2ccccc2)=N1 (stereo unspecified)	> 100	> 100	> 100	> 100	> 100	–	–	–	–	–	–	–	> 100	–	–	–	–	–	> 100
COC(=O)CC(NC(=O)OCc1ccccc1)C(C(=O)OCc1ccccc1)C(C)(OC)OC (stereo unspecified)	64	74.7	58.8	80.9	> 100	–	–	–	–	–	–	–	34.1	–	–	–	–	–	> 100
CN1CCc2c1nc(-c1ccc(Cl)cc1)c1c2N(C)CC1	67.7	49.9	37.1	> 100	> 100	–	–	–	–	–	–	–	21.1	–	–	–	–	–	71.1
COc1ccc(CCn2c(=O)c3ccccc3n(C)c2=O)cc1	> 100	> 100	> 100	> 100	> 100	–	–	–	–	–	–	–	50.1	–	–	–	–	–	> 100
Cc1c2c(c(C)c3c4c(oc13)CCCC4)C=NCC2	32.4	31.9	43	32.6	32	–	32.9	–	–	–	–	–	48.5	–	–	–	53	–	31.7
NCCOCCOCCNc1nc(-c2ccc(Cl)cc2)nc(N2CCN(c3ccccn3)CC2)n1	7.45	3.83	–	4.18	–	2.55	6.01	2320	1.86	–	2.18	–	–	1.89	3.92	1920	4.6	6.17	20.8
Cc1c(NC(=S)NC(=O)c2ccc([N+](=O)[O-])cc2)c(=O)n(-c2ccccc2)n1C	> 100	> 100	> 100	> 100	> 100	–	–	–	–	–	–	–	> 100	–	–	–	–	–	> 100
COC(=O)c1c2c(cc3c1CC1(Cc4cc5c(c(C(C)=O)c4C1)CCC5)C3)CCC2 (stereo unspecified)	74.2	> 100	–	> 100	–	–	–	–	–	–	–	–	> 100	–	–	–	–	–	> 100
C=CCC1=C(C)C[C@@H]2CCC(=O)C=C12	> 100	> 100	> 100	> 100	> 100	–	–	–	–	–	–	–	> 100	–	–	–	–	–	> 100
CC1=NN(C(=O)c2ccc(Cl)cc2)C(=O)/C1=C/c1ccccc1O	–	> 100	> 100	> 100	> 100	–	–	–	–	–	–	–	> 100	–	–	–	–	–	> 100
